Reference: patent US8541476B2, “Compounds for treatment of malignant tumors” (The Trustees of the University of Pennsylvania, priority 2007, dated 2013)

Test system: U251 tumors xenografts
Test: U251 xenograft mouse model, tumor growth delay
Format: in vivo
Protocol: U251 cells (5×10^6) were suspended in 0.1 mL of PBS and then injected into the flanks of nu/nu female nude mice. After tumors formed (45±10 mm^3), mice were randomly assigned into one of four groups: DMSO+Sham IR, DMSO+5 Gy IR, NS-123+Sham IR, and NS-123+5 Gy IR. NS-123 was administered as described above. Groups not receiving NS-123 were treated with the same volume of DMSO alone dissolved in 30% propylene glycol. Mouse flanks were irradiated 4 hours following the second injection with 5 Gy (Precision X-Ray, Inc, North Branford, Conn.) given as one fraction or Sham IR. Tumor volumes were measured every other day based on the formula: Volume=length^2×width where length was always the longest dimension.
Data are presented as average relative tumor volume (RTV), where: RTV[Dayx]=Volume[Dayx]/Volume[Day0]
The measurement of tumor regrowth was calculated by the time needed to grow to 10× the treatment volume. As per Seo et al, 2005, (Clin. Cancer Res. 11:7499-507), the in vivo radiosensitizer enhancement ratio was defined as the ratio: TNS-123+IR/TDMSO+IR where T is tumor regrowth delay (days)
To investigate in a more sophisticated model the radiosensitization observed by NS-123 in ZF, a growth delay assay of U251 tumors xenografts in nu/nu nude mice was performed. Mice were treated for 3 consecutive days with either NS-123 or DMSO (i.p.) and received either 5 Gy IR or Sham IR 4 hours after the second injection (see Table at the bottom FIG. 7A). […] Furthermore, they provide additional support for the use of the novel ZF xenograft model as a faster, more economical screening tool for potential in vivo radiosensitizing activity of lead compounds.

CCC(=O)c1ccc(Br)c([N+](=O)[O-])c1 [NS-123, 4′-bromo-3′-nitropropiophenone]
mean time to reach Relative Tumor Volume (RTV)=10 (NS-123 50 mg/kg i.p. x3 days + 5 Gy IR): 20 days | mean time to reach Relative Tumor Volume (RTV)=10 (NS-123 50 mg/kg i.p. x3 days + Sham IR): 12 days | in vivo radiosensitizer enhancement ratio (ratio of tumor regrowth delay NS-123+IR / DMSO+IR): 2.0
